In general, IC50 refers to the midpoint of a concentration-inhibition curve. A word on the mortality: it is the share of the test organisms that died.

Experimental findings from ChEMBL document CHEMBL4138079, “New cycloartane type-triterpenoids from the areal parts of Caragana sukiensis and their biological activities” (Eur J Med Chem, 2017) are described below.

Molecules are shown by their SMILES. Active and inactive are the calls of the source. The calls are words filed in the database; no cut-off is given here.

Data set [1] has as its system Spodoptera litura. Put plainly: Antifeedant activity in Spodoptera litura third-instar larvae assessed as increase in feeding deterrence after 24 hrs by leaf disk method. The class given is functional.
For data set [2], the system named is A549. The data set is described as follows: Cell cycle arrest in human A549 cells assessed as G2/M phase accumulation at 1 uM after 48 hrs by propidium iodide staining based FACS analysis (reference value: 16.81%). The class given is functional. A general note: A flow cytometer gives signals particle by particle.
The test system of data set [3] is A549. Put plainly: Cell cycle arrest in human A549 cells assessed as G2/M phase accumulation at 2 uM after 48 hrs by propidium iodide staining based FACS analysis (reference value: 16.81%). The data set is classed as functional.
Data set [4] has as its system A549. Put plainly: Cell cycle arrest in human A549 cells assessed as sub G1 phase accumulation at 2 uM after 48 hrs by propidium iodide staining based FACS analysis (reference value: 0.96%). The data set is classed as functional.
For data set [5], the system named is A549. The data set is described as follows: Induction of apoptosis in human A549 cells assessed as early apoptotic cells at 2 uM after 48 hrs by Annexin V-FITC/propidium iodide staining based flow cytometry (reference value: 3.24%). The class given is functional.
A further data set deals with HeLa. Put plainly: Cytotoxicity against human HeLa cells assessed as reduction in cell viability after 48 hrs by MTT assay. The data set is classed as functional, cell-based. On the technique in general: Formazan colour is commonly taken as a measure of viable cells.
Data set [6] deals with Spodoptera litura. Put plainly: Antifeedant activity in Spodoptera litura third-instar larvae assessed as larval duration time after 24 hrs by leaf disk method (reference value: 10.1 +/- 0.1 day). The class given is functional.
The test system of data set [7] is A549. Put plainly: Induction of apoptosis in human A549 cells assessed as late apoptotic cells at 1 uM after 48 hrs by Annexin V-FITC/propidium iodide staining based flow cytometry (reference value: 5.19%). The class given is functional.
Data set [8] has as its system A549. Put plainly: Induction of apoptosis in human A549 cells assessed as cell population with intact mitochondrial membrane potential at 1 uM measured after 48 hrs by JC-1 staining based flow cytometry (reference value: 37.5%). The class given is functional.
In data set [9] the test system is A549. Put plainly: Induction of apoptosis in human A549 cells assessed as early apoptotic cells at 1 uM after 48 hrs by Annexin V-FITC/propidium iodide staining based flow cytometry (reference value: 3.24%). The data set is classed as functional.
Data set [10] has as its system A549. Put plainly: Cell cycle arrest in human A549 cells assessed as G0/G1 phase accumulation at 2 uM after 48 hrs by propidium iodide staining based FACS analysis (reference value: 77.91%). The class given is functional.
For data set [11], the system named is Spodoptera litura. Put plainly: Antifeedant activity in Spodoptera litura assessed as pupal weight after 24 hrs by leaf disk method (reference value: 0.245 +/- 0.02 g). The class given is functional.
Data set [12] has as its system A549. The data set is described as follows: Induction of apoptosis in human A549 cells assessed as cell population with mitochondrial membrane potential loss at 2 uM measured after 48 hrs by JC-1 staining based flow cytometry (reference value: 27.4%). The data set is classed as functional.
Data set [13] deals with A549. The data set is described as follows: Induction of apoptosis in human A549 cells assessed as necrotic cells at 1 uM after 48 hrs by Annexin V-FITC/propidium iodide staining based flow cytometry (reference value: 0.35%). The class given is functional.
Data set [14] relates to A549. Put plainly: Induction of apoptosis in human A549 cells assessed as morphological change at 1 uM after 48 hrs by Hoechst 33258 staining based fluorescence microscopic analysis. The class given is functional, cell-based.
Data set [15] concerns Spodoptera litura. The data set is described as follows: Antifeedant activity in Spodoptera litura third-instar larvae assessed as increase in feeding deterrence by measuring antifeedant index at 5 ug/cm2 after 24 hrs by leaf disk method. The data set is classed as functional.
Data set [16] has as its system A549. Put plainly: Induction of apoptosis in human A549 cells after 48 hrs by Annexin V-FITC/propidium iodide staining based flow cytometry. The class given is functional, cell-based.
The subject of data set [17] is A549. The data set is described as follows: Cell cycle arrest in human A549 cells assessed as G0/G1 phase accumulation after 48 hrs by propidium iodide staining based FACS analysis. The data set is classed as functional.
In a further data set the test system is MCF7. The data set is described as follows: Cytotoxicity against human MCF7 cells assessed as reduction in cell viability after 48 hrs by MTT assay. The class given is functional, cell-based. The following applies: MCF7, 48 h.
Another data set deals with HEK293. The data set is described as follows: Cytotoxicity against human HEK293 cells assessed as reduction in cell viability after 48 hrs by MTT assay. The data set is classed as cell-based. The following applies: HEK293, 48 h.
Data set [18] relates to A549. Put plainly: Cell cycle arrest in human A549 cells assessed as S phase accumulation at 1 uM after 48 hrs by propidium iodide staining based FACS analysis (reference value: 2.45%). The class given is functional.
The subject of data set [19] is Spodoptera litura. Put plainly: Antifeedant activity in Spodoptera litura assessed as pupal mortality after 24 hrs by leaf disk method (reference value: 0%). The data set is classed as functional.
Data set [20] deals with A549. The data set is described as follows: Cell cycle arrest in human A549 cells assessed as S phase accumulation at 2 uM after 48 hrs by propidium iodide staining based FACS analysis (reference value: 2.45%). The data set is classed as functional.
In data set [21] the test system is A549. Put plainly: Induction of apoptosis in human A549 cells assessed as cell population with mitochondrial membrane potential loss at 1 uM measured after 48 hrs by JC-1 staining based flow cytometry (reference value: 27.4%). The class given is functional.
The subject of data set [22] is A549. Put plainly: Induction of apoptosis in human A549 cells assessed as live cells at 1 uM after 48 hrs by Annexin V-FITC/propidium iodide staining based flow cytometry (reference value: 91.22%). The data set is classed as functional.
For the next data set, the system named is DU-145. The data set is described as follows: Cytotoxicity against human DU145 cells assessed as reduction in cell viability after 48 hrs by MTT assay. The class given is functional, cell-based. The following applies: DU-145, 48 h.
Data set [23] has as its system A549. The data set is described as follows: Induction of apoptosis in human A549 cells assessed as live cells at 2 uM after 48 hrs by Annexin V-FITC/propidium iodide staining based flow cytometry (reference value: 91.22%). The class given is functional.
Data set [24] relates to A549. Put plainly: Cell cycle arrest in human A549 cells assessed as sub G1 phase accumulation at 1 uM after 48 hrs by propidium iodide staining based FACS analysis (reference value: 0.96%). The data set is classed as functional.
Data set [25] relates to A549. Put plainly: Induction of apoptosis in human A549 cells assessed as necrotic cells at 2 uM after 48 hrs by Annexin V-FITC/propidium iodide staining based flow cytometry (reference value: 0.35%). The class given is functional.
Data set [26] has as its system A549. Put plainly: Induction of apoptosis in human A549 cells assessed as late apoptotic cells at 2 uM after 48 hrs by Annexin V-FITC/propidium iodide staining based flow cytometry (reference value: 5.19%). The class given is functional.
The test system of data set [27] is A549. The data set is described as follows: Cell cycle arrest in human A549 cells assessed as G0/G1 phase accumulation at 1 uM after 48 hrs by propidium iodide staining based FACS analysis (reference value: 77.91%). The data set is classed as functional.
Data set [28] relates to A549. Put plainly: Induction of apoptosis in human A549 cells assessed as cell population with intact mitochondrial membrane potential at 2 uM measured after 48 hrs by JC-1 staining based flow cytometry (reference value: 37.5%). The data set is classed as functional.
The subject of data set [29] is A549. Put plainly: Cytotoxicity against human A549 cells assessed as reduction in cell viability after 48 hrs by MTT assay. The data set is classed as functional, cell-based. The following applies: A549, 48 h.
Data set [30] deals with Spodoptera litura. Put plainly: Insecticidal activity in Spodoptera litura third-instar larvae assessed as larval mortality at 5 ug/cm2 after 24 hrs by leaf disk method relative to control. The class given is functional. Particulars: foliar.
The test system of data set [31] is Spodoptera litura. The data set is described as follows: Toxicity in Spodoptera litura third-instar larvae assessed as increase in larval mortality after 24 hrs by leaf disk method. The data set is classed as organism-based. Particulars: in vivo.
Data set [32] has as its system Spodoptera litura. Put plainly: Insecticidal activity in Spodoptera litura third-instar larvae assessed as increase in larval mortality at 2.8 ug/cm2 after 24 hrs by leaf disk method relative to control. The data set is classed as functional. Particulars: foliar.
Data set [33] relates to Spodoptera litura. Put plainly: Antifeedant activity in Spodoptera litura third-instar larvae assessed as increase in feeding deterrence by measuring antifeedant index at 2.8 ug/cm2 after 24 hrs by leaf disk method. The class given is functional.

Regarding `CC(C)(O)[C@@H]1CC[C@](C)([C@H]2[C@@H](O)C[C@@]3(C)[C@@H]4C[C@H](O)[C@H]5C(C)(C)[C@@H](O)CC[C@@]56C[C@@]46CC[C@]23C)O1`, the ED50 with Spodoptera litura [1] is recorded as 11.96 microg/cm2. In addition, the Activity was 14.45% in the data set on A549 [2]; 7.29% with A549 [3]; 0.84% with A549 [4]; 3.94% in the data set with A549 [5]; 11.31% with A549 [7]; 39.6% with A549 [8]. Moreover, the Activity in the data set on A549 [9] was 4.17%; in the data set with A549 [10], 90.47%; with Spodoptera litura [11], 0.199 g; in the data set on A549 [12], 31.1%; in the data set on A549 [13] it was 0.96%; in the data set with A549 [16], “Dose-dependent effect”. The Activity result is “Dose-dependent effect” in the data set on A549 [17]; 2.41% with A549 [18]; 0.87% with A549 [20]; 29% in the data set on A549 [21]; 83.55% with A549 [22]; 71.07% with A549 [23]. Further, the Activity with A549 [24] is 0.4%; in the data set with A549 [25], 1.16%; in the data set on A549 [26], 23.83%; with A549 [27], 82.05%; in the data set with A549 [28], 38.6%. The IC50 with HeLa turned out to be 2200 nM; in the data set on MCF7, 1780 nM; in the data set on HEK293, 128000 nM; with DU-145, 7260 nM; in the data set with A549 [29], 1540 nM. The Time with Spodoptera litura [6] was found to be 14.2 days. The result with A549 [14] was Active. For the same molecule, in the data set on Spodoptera litura [15], the Activity_index was found to be 59.9. Further, in the data set on Spodoptera litura [19], the mortality turned out to be 89.6%. Further, the mortality at 5 µg/cm2 with Spodoptera litura [30] is 11.8%.
Consider `C/C=C(\C)C(=O)O[C@H]1C[C@@H](OC(C)=O)[C@@]2(C(=O)OC)CO[C@H]3[C@@H](O)[C@@](C)([C@]45O[C@@]4(C)[C@H]4C[C@@H]5O[C@@H]5OC=C[C@@]54O)[C@H]4[C@]1(CO[C@]4(O)C(=O)OC)[C@@H]32` [AZADIRACTIN], for which, in the data set with Spodoptera litura [1], the ED50 is 1.8 microg/cm2. In addition, the LD50 in the data set with Spodoptera litura [31] was found to be 0.84 microg/cm2. Moreover, the mortality at 2.8 µg/cm2 in the data set on Spodoptera litura [32] is 100%. In addition, in the data set with Spodoptera litura [33], the Activity_index is 99.1.
